Test system: MV4-11 cells
Test: In vitro proliferation (Cell Titer Glo), Compound 51 with decitabine and venetoclax, MV4-11
Type: cell-based, human
Set-up: key to Synergy/antagonism call (maxR test): no asterisk: absence of any asterisk indicates an additive effect; antagonism is indicated by “*”; synergy is indicated by “**”; Effect size (BIGL, HSA null model): scale not given here
Method: 3a) In Vitro Proliferation—Menin-MLL Inhibitor in Combination with a DNA Hypomethylating Agent (Decitabine) and a BCL2 Inhibitor (Venetoclax)
The effect of Compound 51 in combination with decitabine and venetoclax was determined in proliferation assays.
AML cell lines MOLM-13, OCI-AML3 and MV4-11 were purchased from DSMZ. MOLM-13 were grown in RPMI medium supplemented with 10% Fetal Bovine Serum (FBS) and 1% penicillin/streptomycin. MV4-11 cells were grown in IMDM medium supplemented with 10% FBS and 1% penicillin/streptomycin. OCI-AML3 cells were cultured in 80-90% alpha-MEM (without ribo- and deoxyribonucleosides)+10-20% FBS. All cell lines were cultured at 37° C. in 5% CO2 atmosphere.
AML cell lines (10×10^3 cells/well) were seeded in 96-well plates and grown for 6 days in serum (10%)-containing medium in the presence or absence of inhibitors at the indicated concentrations. Proliferation was analyzed by means of a Cell Titer Glo assay using the CellTiter 96 Aqueous One Solution Cell Proliferation Assay (Promega, Madison, WI, USA), according to the manufacturer's instructions. Data are mean with standard deviation from two to four independent experiments in technical triplicates.
R-based Biochemically Intuitive Generalized Loewe (BIGL) model implemented with a highest single agent (HSA) null model. Specifically, the BIGL methodology was applied to calculate drug-drug interactions (Van der Borght, K., Tourny, A., Bagdziunas, R. et al. BIGL: Biochemically Intuitive Generalized Loewe null model for prediction of the expected combined effect compatible with partial agonism and antagonism. Sci Rep 7, 17935 (2017); Thas, O., Tourny, A., Verbist, B., Hawinkel, S., Nazarov, M., Mutambanengwe, K., & Bijnens, L. Statistical detection of synergy: new methods and a comparative study. Pharmaceutical Statistics (2021)).
Synergy matrix results of the BIGL analysis of the cell line data with HSA as mean model calculated on the basis of the cellular metabolic activity using Cell Titer-Glo assay. Bootstrap confidence intervals are indicated. Effect sizes and their confidence intervals are shown. […] No significant average effect if zero is included in the interval.

[1] = Compound 51 0.01 μM, Decitabine 0.015 μM, Venetoclax 0.001 μM
[2] = Compound 51 0.01 μM, Decitabine 0.15 μM, Venetoclax 0.002 μM
[3] = Compound 51 0.01 μM, Decitabine 1.5 μM, Venetoclax 0.02 μM
[4] = Compound 51 0.05 μM, Decitabine 0.015 μM, Venetoclax 0.001 μM
[5] = Compound 51 0.05 μM, Decitabine 0.15 μM, Venetoclax 0.002 μM
[6] = Compound 51 0.05 μM, Decitabine 1.5 μM, Venetoclax 0.02 μM
[7] = Compound 51 0.1 μM, Decitabine 0.15 μM, Venetoclax 0.002 μM
[8] = Compound 51 0.1 μM, Decitabine 1.5 μM, Venetoclax 0.02 μM

With `CC(=O)N1CCC(CN2CC[C@@H](Cc3cn(-c4ccc(F)cc4C(=O)N(C)C(C)C)c4cncc(C)c34)C2)CC1` [Compound 51] the “Effect size (BIGL, HSA null model)” value (Compound 51 0.001 μM, Decitabine 0.0015 μM, Venetoclax 0.0001 μM) was −0.02, the “Effect size (BIGL, HSA null model)” value (Compound 51 0.001 μM, Decitabine 0.015 μM, Venetoclax 0.001 μM) was −0.05 and the “Effect size (BIGL, HSA null model)” value (Compound 51 0.001 μM, Decitabine 0.15 μM, Venetoclax 0.002 μM) was −0.01. The “Effect size (BIGL, HSA null model)” value (Compound 51 0.001 μM, Decitabine 1.5 μM, Venetoclax 0.02 μM) was −0.08, the “Effect size (BIGL, HSA null model)” value (Compound 51 0.001 μM, Decitabine 3 μM, Venetoclax 0.2 μM) was −0.06 and the “Effect size (BIGL, HSA null model)” value (Compound 51 0.01 μM, Decitabine 0.0015 μM, Venetoclax 0.0001 μM) was −0.02. For the same compound, the “Effect size (BIGL, HSA null model)” value [1] was 0.22, the “Synergy/antagonism call (maxR test)” value [1] was “**” and the “Effect size (BIGL, HSA null model)” value [2] was −0.26. The “Synergy/antagonism call (maxR test)” value [2] was “**”, the “Effect size (BIGL, HSA null model)” value [3] was −0.1 and the “Synergy/antagonism call (maxR test)” value [3] was “**”. For the same compound, the “Effect size (BIGL, HSA null model)” value (Compound 51 0.01 μM, Decitabine 3 μM, Venetoclax 0.2 μM) was −0.06, the “Effect size (BIGL, HSA null model)” value (Compound 51 0.05 μM, Decitabine 0.0015 μM, Venetoclax 0.0001 μM) was 0 and the “Effect size (BIGL, HSA null model)” value [4] was −0.17. The “Synergy/antagonism call (maxR test)” value [4] was “**”, the “Effect size (BIGL, HSA null model)” value [5] was −0.24 and the “Synergy/antagonism call (maxR test)” value [5] was “**”. For the same compound, the “Effect size (BIGL, HSA null model)” value [6] was −0.1, the “Synergy/antagonism call (maxR test)” value [6] was “**” and the “Effect size (BIGL, HSA null model)” value (Compound 51 0.05 μM, Decitabine 3 μM, Venetoclax 0.2 μM) was −0.06. For the same compound, the “Effect size (BIGL, HSA null model)” value (Compound 51 0.1 μM, Decitabine 0.0015 μM, Venetoclax 0.0001 μM) was 0.03, the “Effect size (BIGL, HSA null model)” value (Compound 51 0.1 μM, Decitabine 0.015 μM, Venetoclax 0.001 μM) was −0.06 and the “Effect size (BIGL, HSA null model)” value [7] was −0.09. The “Synergy/antagonism call (maxR test)” value [7] was “**”, the “Effect size (BIGL, HSA null model)” value [8] was −0.3 and the “Synergy/antagonism call (maxR test)” value [8] was “**”. For the same compound, the “Effect size (BIGL, HSA null model)” value (Compound 51 0.1 μM, Decitabine 3 μM, Venetoclax 0.2 μM) was −0.06, the “Effect size (BIGL, HSA null model)” value (Compound 51 0.5 μM, Decitabine 0.0015 μM, Venetoclax 0.0001 μM) was 0 and the “Effect size (BIGL, HSA null model)” value (Compound 51 0.5 μM, Decitabine 0.015 μM, Venetoclax 0.001 μM) was −0.02. The “Effect size (BIGL, HSA null model)” value (Compound 51 0.5 μM, Decitabine 0.15 μM, Venetoclax 0.002 μM) was −0.02, the “Effect size (BIGL, HSA null model)” value (Compound 51 0.5 μM, Decitabine 1.5 μM, Venetoclax 0.02 μM) was −0.03 and the “Effect size (BIGL, HSA null model)” value (Compound 51 0.5 μM, Decitabine 3 μM, Venetoclax 0.2 μM) was −0.03. The “Effect size (BIGL, HSA null model)” value (Compound 51 1 μM, Decitabine 0.0015 μM, Venetoclax 0.0001 μM) was −0.03, the “Effect size (BIGL, HSA null model)” value (Compound 51 1 μM, Decitabine 0.015 μM, Venetoclax 0.001 μM) was −0.02 and the “Effect size (BIGL, HSA null model)” value (Compound 51 1 μM, Decitabine 0.15 μM, Venetoclax 0.002 μM) was −0.02. The “Effect size (BIGL, HSA null model)” value (Compound 51 1 μM, Decitabine 1.5 μM, Venetoclax 0.02 μM) was −0.03, the “Effect size (BIGL, HSA null model)” value (Compound 51 1 μM, Decitabine 3 μM, Venetoclax 0.2 μM) was −0.08 and the “combination effect on proliferation (in words)” value (pairwise matrix of decitabine and Compound 51 in the presence of Venetoclax, MV4-11, 6-day CellTiter-Glo) was “synergistically cytotoxic”.
